The values below come from ChEMBL document CHEMBL4765432, “Design and synthesis of novel Flavone-based histone deacetylase inhibitors antagonizing activation of STAT3 in breast cancer” (Eur J Med Chem, 2020).

The structures appear in SMILES notation. Activity calls are given as the source filed them. No cut-off for these calls is given here.

The test system of one data set is BT-549. In words: Potency index, ratio of IC50 of SAHA to IC50 of compound for cytotoxicity against human BT-549 cells assessed as reduction in cell viability incubated for 48 hrs by MTT assay. The data set is classed as functional. On the technique in general: Formazan colour is commonly taken as a measure of viable cells.
A short description of data set [1]: AUC (0 to infinity) in Sprague-Dawley rat at 20 mg/kg, iv measured upto 12 hrs by LC-MS/MS analysis. The data set is classed as ADME, organism-based. The conditions noted are these: in vivo. Also noted: route intravenous, dose 20 mg/kg, time <=12.
Data set [2] can be described thus: Cmax in Sprague-Dawley rat at 20 mg/kg, po measured upto 12 hrs by LC-MS/MS analysis. The data set is classed as ADME, organism-based. Details: route oral, dose 20 mg/kg, time <=12. The conditions noted are these: in vivo.
A short description of data set [3]: Cytotoxicity against human B16-F10 cells assessed as reduction in cell viability incubated for 48 hrs by MTT assay. As to conditions: B16-F10, 48 h. The data set is classed as functional, cell-based.
Data set [4] has as its system MDA-MB-231. The data set is described as follows: Induction of apoptosis in human MDA-MB-231 cells xenografted in BALB/c mouse assessed as increase in caspase-3 cleavage by immunohistochemistry method. The format is functional, cell-based. (In general: A xenograft is tissue or cells of one species grown in another, often human tumour cells in immunodeficient mice.)

A further data set deals with Histone deacetylase 11 (Homo sapiens, UniProt Q96DB2). In words: Inhibition of recombinant human N-terminal GST-tagged full length HDAC-11 expressed in baculovirus infected in Sf9 cells using Boc-Lys (q-Ac)-AMC as substrate incubated for 10 mins followed by substrate addition and measured after 30 mins by fluorescence based assay.
Sequence of Histone deacetylase 11 (Q96DB2 whole entry): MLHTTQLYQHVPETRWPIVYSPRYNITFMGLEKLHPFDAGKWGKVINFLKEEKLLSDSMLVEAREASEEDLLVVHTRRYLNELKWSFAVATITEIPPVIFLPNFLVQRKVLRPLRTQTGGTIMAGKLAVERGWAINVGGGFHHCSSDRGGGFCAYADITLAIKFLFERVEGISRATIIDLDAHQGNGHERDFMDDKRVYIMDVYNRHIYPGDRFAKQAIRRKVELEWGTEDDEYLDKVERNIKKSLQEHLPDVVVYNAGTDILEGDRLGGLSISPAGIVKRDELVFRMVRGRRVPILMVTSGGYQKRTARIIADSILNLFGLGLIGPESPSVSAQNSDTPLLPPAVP
Data set [5] relates to 4T1. In words: Induction of apoptosis in mouse 4T1 cells assessed as necrotic cells at 5 uM incubated for 72 hrs by annexinV-FITC and PI staining based flow cytometry analysis (reference value: 5.00 %). The data set is classed as functional. A general note: Flow cytometry measures light scatter and fluorescence of single cells or particles in a stream.
Data set [6] concerns the target Signal transducer and activator of transcription 3 (Homo sapiens) (UniProt P40763). The data set is described as follows: Inhibition of STAT3 in human MDA-MB-231 cells assessed as reduction in STAT-3 phosphorylation incubated for 8 hrs by Western blot analysis. The conditions noted are these: dose 2.5-20 µM. The format is cell-based.
Data set [7] in a line: Half life in Sprague-Dawley rat at 20 mg/kg, po measured upto 12 hrs by LC-MS/MS analysis. The data set is classed as ADME, organism-based. The conditions noted are these: in vivo.
Data set [8] deals with MDA-MB-231. The data set is described as follows: Antitumor activity against human MDA-MB-231 cells xenografted in nude mouse assessed as tumor growth inhibition at 25 mg/kg, ip administered for 34 days and measured on day 34. The format is functional, organism-based. The conditions noted are these: time 34.0 day.
Data set [9] concerns MDA-MB-231. In words: Induction of cell cycle arrest in human MDA-MB-231 cells assessed as G2/M phase accumulation at 1 uM incubated for 24 hrs by PI staining based flow cytometry analysis (reference value: 27.08 %). The data set is classed as functional.
Data set [10] has as its system 4T1. The data set is described as follows: Induction of apoptosis in mouse 4T1 cells assessed as necrotic cells at 1 uM incubated for 72 hrs by annexinV-FITC and PI staining based flow cytometry analysis (reference value: 5.00 %). The data set is classed as functional.
Data set [11] in a line: AUC (0 to infinity) in Sprague-Dawley rat at 20 mg/kg, po measured upto 12 hrs by LC-MS/MS analysis. Also noted: route oral, dose 20 mg/kg, time <=12. As to conditions: in vivo. The format is ADME, organism-based.
The subject of a further data set is HEK-293T. The data set is described as follows: Cytotoxicity against human HEK293T cells assessed as reduction in cell viability incubated for 48 hrs by MTT assay. The format is ADME, cell-based.

Sequence of Signal transducer and activator of transcription 3 (Homo sapiens) (P40763 whole entry): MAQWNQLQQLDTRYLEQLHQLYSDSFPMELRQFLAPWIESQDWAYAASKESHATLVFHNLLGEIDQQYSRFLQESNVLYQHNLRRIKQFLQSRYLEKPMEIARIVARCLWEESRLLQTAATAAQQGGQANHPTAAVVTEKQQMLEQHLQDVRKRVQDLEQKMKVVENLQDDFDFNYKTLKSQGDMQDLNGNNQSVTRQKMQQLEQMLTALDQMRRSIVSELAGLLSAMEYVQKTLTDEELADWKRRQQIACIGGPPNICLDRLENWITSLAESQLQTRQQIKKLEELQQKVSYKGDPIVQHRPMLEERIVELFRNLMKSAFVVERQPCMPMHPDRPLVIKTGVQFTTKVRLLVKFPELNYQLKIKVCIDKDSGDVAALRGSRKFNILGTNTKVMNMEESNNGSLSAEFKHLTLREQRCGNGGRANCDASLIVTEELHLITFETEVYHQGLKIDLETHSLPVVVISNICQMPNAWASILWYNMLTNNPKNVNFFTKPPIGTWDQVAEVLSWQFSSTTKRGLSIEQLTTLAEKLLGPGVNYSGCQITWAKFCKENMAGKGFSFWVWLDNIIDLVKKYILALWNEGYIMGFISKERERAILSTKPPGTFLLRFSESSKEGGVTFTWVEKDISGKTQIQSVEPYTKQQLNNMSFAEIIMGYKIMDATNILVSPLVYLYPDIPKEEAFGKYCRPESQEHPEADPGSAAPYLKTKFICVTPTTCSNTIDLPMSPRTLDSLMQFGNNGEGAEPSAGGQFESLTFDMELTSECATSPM

By AUC(0-inf) is commonly meant total exposure, with the tail of the curve extrapolated. Low values mean less exposure, high ones more exposure. Broadly, the Cmax is the maximum level reached in the sampled fluid or tissue. As usually defined, the IC50 is the concentration needed to halve the response being measured. Usually half-life stands for the time in which the quantity being followed falls by half. A low value points to fast loss. For the molecule `CN(C)CCOc1ccc(-c2cc(=O)c3c(O)cc(OCCCCCC(=O)NO)cc3o2)cc1.Cl`, in the data set on BT-549, the “Ratio IC50” value is given as 2. Besides, the AUC(0-inf) was determined as 2840 ng·h/mL in [1] and 1640 ng·h/mL in [11]. The molecule also showed a Cmax in data set [2] of 1280 ng/mL. Besides, the IC50 was 0.51 µM in [3], 0.179 µM at Histone deacetylase 11 and more than 10 µM in the data set with HEK-293T. For the same molecule, the result with MDA-MB-231 [4] was Active. Moreover, the values for the Activity with 4T1 [5], in the data set with MDA-MB-231 [9] and in the data set on 4T1 [10] were 0.852%, 42.82% and 3.6%, respectively. The inhibition result in [6] is “Dose-dependent effect”. The same molecule showed a half-life in data set [7] of 14.9 min. Besides, the TGI result with MDA-MB-231 [8] was “Active”.
